# Counter-ions that a name gives are not always drawn.
# Test system: Arabidopsis thaliana
# Experiment: Activity of 2,4-DB esters compared with 2,4-DB
# Assay type: in vivo
# Conditions: 31.25 μM to 2000 μM; imaged day 12
# Method: (§1) Once the Arabidopsis thaliana seeds had germinated, this was Day 0 and an image taken (Treatment—Day 0) to show plants were all at the same stage. Plants were treated either with 2,4-DB or 2-(dimethylamino)ethyl 4-(2,4-dichlorophenoxy)butanoate at concentrations ranging from 31.25 μM to 2000 μM as marked and imaged 12 days later (Treatment—Day 12).
# as §1, with “4-(2,4-dichlorophenoxy)butanoate hydrochloride” for “4-(2,4-dichlorophenoxy)butanoate”
row,SMILES,"activity against Arabidopsis thaliana on an equimolar basis, FIGS. 19 and 20"
1,"O=C(O)CCCOc1ccc(Cl)cc1Cl [2,4-DB, 4-(2,4-dichlorophenoxy)butanoic acid, reference compound]",comparable activity
2,"CN(C)CCOC(=O)CCCOc1ccc(Cl)cc1Cl.Cl [2-(dimethylamino)ethyl 4-(2,4-dichlorophenoxy)butanoate hydrochloride]",comparable activity
3,"CN(C)CCOC(=O)CCCOc1ccc(Cl)cc1Cl [2-(dimethylamino)ethyl 4-(2,4-dichlorophenoxy)butanoate]",comparable activity

# Test system: A. thaliana
# Experiment: Herbicidal activity assay, post-emergence, pots
# Assay type: in vivo, Arabidopsis thaliana Col-0
# Conditions: A. thaliana Col-0; post-emergence treatments at three and six days after germination; grown 16 days after treatment
# Method: (§2) A range of compounds of the invention were assessed for herbicidal activity against A. thaliana. A. thaliana Col-0 seeds (˜30) were sown in 63×63×59 mm pots consisting of Irish peat that was pre-wet prior to sowing. Seeds were cold-treated for 3 days in the dark at 4° C. to synchronise germination and then grown in a chamber at 22° C., with 60% relative humidity and in a 16 h light/8 h dark photoperiod. Compounds of the invention were initially dissolved in dimethyl sulfoxide (DMSO) at 20 mg/mL and further diluted in water prior to treatments. The surfactant Brushwet (SST Australia) was added to a final concentration of 0.02%. The carrier DMSO was used as a negative control. Seeds or seedlings were treated with solutions of compound that contained 2% of DMSO, using a pipette. Post-emergence treatments were done at three and six days after germination. Seedlings were grown for 16 days after treatment before photos were taken.
# The results of this study are represented in the following table, where compounds of the invention are represented by number, and herbicidal activity is represented using the following: ≤125 μM=+++, ≤500 μM=++, ≤2000 μM=+
# as §2, with “A.” for “A range of compounds of the invention were assessed for herbicidal activity against A. thaliana. A.”, “Compounds” for “Compounds of the invention”
row,SMILES,Active at [µM]
1,CC(=NNC(=O)Nc1cccc(F)c1)c1ncccc1C(=O)OCCN(C)C.Cl [2-(Dimethylamino)ethyl 2-[1-[2-[[(3-fluorophenyl)amino]carbonyl]hydrazinylidene]ethyl]-3-pyridinecarboxylate hydrochloride],125
2,"CC(C)C1(C)N=C(c2ncccc2C(=O)OCCN(C)C)NC1=O.Cl (stereo not shown) [2-(Dimethylamino)ethyl 2-[4,5-dihydro-4-methyl-4-(1-methylethyl)-5-oxo-1H-imidazol-2-yl]-3-pyridinecarboxylate hydrochloride]",500
3,"CN(C)CCOC(=O)c1nc(Cl)ccc1Cl.Cl [3,6-dichloropyridine-2-carboxylic acid 2-(dimethylamino)ethyl ester hydrochloride]",125
4,"CN(C)CCOC(=O)c1nc(Cl)ccc1Cl [3,6-dichloropyridine-2-carboxylic acid 2-(dimethylamino)ethyl ester]",125
5,"CN(C)CCOC(=O)c1c(Cl)ccc2cc(Cl)cnc12.Cl [3,7-dichloroquinoline-8-carboxylic acid 2-(dimethylamino)ethyl ester hydrochloride]",2000
6,"CN(C)CCOC(=O)c1c(Cl)ccc2cc(Cl)cnc12 [3,7-dichloroquinoline-8-carboxylic acid 2-(dimethylamino)ethyl ester]",2000

# Same assay, conditions: Arabidopsis thaliana, 384 h; A. thaliana Col-0; post-emergence treatments at three and six days after germination; grown 16 days after treatment
row,SMILES,minimal effective concentration [µM]
1,O=C(O)CC(O)(CC(=O)O)C(=O)O [1. citrate],≤ 125
2,"COc1c(Cl)ccc(Cl)c1C(=O)OCCN(C)C [Compound 1, 2-(dimethylamino)ethyl 3,6-dichloro-2-methoxybenzoate]",≤ 500
3,"CCN(CC)CCOC(=O)c1c(Cl)ccc(Cl)c1OC [Compound 2, 2-(diethylamino)ethyl 3,6-dichloro-2-methoxybenzoate]",≤ 125
4,"COc1c(Cl)ccc(Cl)c1C(=O)OCCN(C(C)C)C(C)C [Compound 3, 2-(dipropan-2-ylamino)ethyl 3,6-dichloro-2-methoxybenzoate]",≤ 500
5,"CCCCN(CCCC)CCOC(=O)c1c(Cl)ccc(Cl)c1OC [Compound 4, 2-(dibutylamino)ethyl 3,6-dichloro-2-methoxybenzoate]",≤ 125
6,"COc1c(Cl)ccc(Cl)c1C(=O)OCCN1CCCC1 [Compound 5, 2-(pyrrolidin-1-yl)ethyl 3,6-dichloro-2-methoxybenzoate]",≤ 500
7,"COc1c(Cl)ccc(Cl)c1C(=O)OCCN1CCCCC1 [Compound 6, 2-(piperidin-1-yl)ethyl 3,6-dichloro-2-methoxybenzoate]",≤ 2000
8,"COc1c(Cl)ccc(Cl)c1C(=O)OCCN1CCOCC1 [Compound 7, 2-(morpholin-4-yl)ethyl 3,6-dichloro-2-methoxybenzoate]",≤ 125
9,"COc1c(Cl)ccc(Cl)c1C(=O)OCCN1CCN(C)CC1 [Compound 8, 2-(4-methylpiperazin-1-yl)ethyl 3,6-dichloro-2-methoxybenzoate]",≤ 2000
10,"COc1c(Cl)ccc(Cl)c1C(=O)OC1CCN(C)CC1 [Compound 9, 1-methylpiperidin-4-yl 3,6-dichloro-2-methoxybenzoate]",≤ 2000
11,"COc1c(Cl)ccc(Cl)c1C(=O)OCC1CCCN1C (stereo not shown) [Compound 10, (1-methylpyrrolidin-2-yl)methyl 3,6-dichloro-2-methoxybenzoate]",≤ 500
12,"COc1c(Cl)ccc(Cl)c1C(=O)OCCc1ccccn1 [Compound 11, 2-(pyridin-2-yl)ethyl 3,6-dichloro-2-methoxybenzoate]",≤ 125
13,"COc1c(Cl)ccc(Cl)c1C(=O)OCCCN(C)C [Compound 12, 3-(dimethylamino)propyl 3,6-dichloro-2-methoxybenzoate]",≤ 2000
14,"COc1c(Cl)ccc(Cl)c1C(=O)OCCCCCCN(C)C [Compound 14, 6-(dimethylamino)hexyl 3,6-dichloro-2-methoxybenzoate]",≤ 125
15,"COc1c(Cl)ccc(Cl)c1C(=O)OCCCCCCCCN(C)C [Compound 15, 8-(dimethylamino)octyl 3,6-dichloro-2-methoxybenzoate]",≤ 500
16,"COc1c(Cl)ccc(Cl)c1C(=O)OCCOCCN(C)C [Compound 16, 2-(2-(dimethylamino)ethoxy)ethyl 3,6-dichloro-2-methoxybenzoate]",≤ 500
17,"COc1c(Cl)ccc(Cl)c1C(=O)OCCN(C)CCO [Compound 17, 2-((2-hydroxyethyl)(methyl)amino)ethyl 3,6-dichloro-2-methoxybenzoate]",≤ 2000
18,"COc1c(Cl)ccc(Cl)c1C(=O)OCCN(C)CCOC(=O)c1c(Cl)ccc(Cl)c1OC [Compound 18, (Methylazanediyl)bis(ethane-2,1-diyl) bis(3,6-dichloro-2-methoxybenzoate)]",≤ 125
19,"COc1c(Cl)ccc(Cl)c1C(=O)OCCN [Compound 19, 2-aminoethyl 3,6-dichloro-2-methoxybenzoate]",≤ 500
20,"CNCCOC(=O)c1c(Cl)ccc(Cl)c1OC [Compound 20, 2-(methylamino)ethyl 3,6-dichloro-2-methoxybenzoate]",≤ 500
21,"COc1c(Cl)ccc(Cl)c1C(=O)OCC(C)(C)N [Compound 21, 2-amino-2-methylpropyl 3,6-dichloro-2-methoxybenzoate]",≤ 500
22,"COc1c(Cl)ccc(Cl)c1C(=O)OC(C)CN (stereo not shown) [Compound 22, 1-aminopropan-2-yl 3,6-dichloro-2-methoxybenzoate]",≤ 2000
23,"COc1c(Cl)ccc(Cl)c1C(=O)OCCCN [Compound 23, 3-aminopropyl 3,6-dichloro-2-methoxybenzoate]",≤ 125
24,"CCN(CCOC(=O)c1c(Cl)ccc(Cl)c1OC)c1ccccc1 [Compound 24, 2-(ethyl(phenyl)amino)ethyl 3,6-dichloro-2-methoxybenzoate]",≤ 500
25,"COc1c(Cl)ccc(Cl)c1C(=O)OCCN(Cc1ccccc1)Cc1ccccc1 [Compound 25, 2-(dibenzylamino)ethyl 3,6-dichloro-2-methoxybenzoate]",≤ 2000
26,"COc1c(Cl)ccc(Cl)c1C(=O)OC(CN(C)C)CN(C)C [Compound 26, 1,3-bis(dimethylamino)propan-2-yl 3,6-dichloro-2-methoxybenzoate]",≤ 125
27,"COc1c(Cl)ccc(Cl)c1C(=O)SCCN(C)C [Compound 27, S-(2-(dimethylamino)ethyl) 3,6-dichloro-2-methoxybenzene-1-carbothioate]",≤ 125
28,"CCN(CC)CCSC(=O)c1c(Cl)ccc(Cl)c1OC [Compound 28, S-(2-(diethylamino)ethyl) 3,6-dichloro-2-methoxybenzene-1-carbothioate]",≤ 125

# Source: patent publication US20230365493A1, “COMPOUNDS AND METHODS” (DEMAGTECH PTY LTD, priority 2020, published 2023)
